Source: patent US10758534B2 (Vertex Pharmaceuticals Incorporated, priority 2014, dated 2020)

Target: T1, F508del (Homo sapiens, UniProt P13569, DEL508-508)
T1 construct: expressed in transfected cells
Test: Protocol 1: membrane potential optical assay (FLIPR III, voltage sensing dye), identification of potentiator compounds
Assay type: cell-based
Settings: Table 3, compounds of Table 1
Method in brief: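 Read-out: change in voltage-sensing dye fluorescence (FLIPR III) as a measure of F508del conductance. Temperature-corrected (27° C, 24 hrs) NIH 3T3 cells expressing F508del are pretreated with potentiators, dye-loaded, then stimulated with forskolin under a chloride ion gradient using chloride-free gluconate bath.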

T1 sequence (P13569 with tags, fused parts or gaps DEL508-508): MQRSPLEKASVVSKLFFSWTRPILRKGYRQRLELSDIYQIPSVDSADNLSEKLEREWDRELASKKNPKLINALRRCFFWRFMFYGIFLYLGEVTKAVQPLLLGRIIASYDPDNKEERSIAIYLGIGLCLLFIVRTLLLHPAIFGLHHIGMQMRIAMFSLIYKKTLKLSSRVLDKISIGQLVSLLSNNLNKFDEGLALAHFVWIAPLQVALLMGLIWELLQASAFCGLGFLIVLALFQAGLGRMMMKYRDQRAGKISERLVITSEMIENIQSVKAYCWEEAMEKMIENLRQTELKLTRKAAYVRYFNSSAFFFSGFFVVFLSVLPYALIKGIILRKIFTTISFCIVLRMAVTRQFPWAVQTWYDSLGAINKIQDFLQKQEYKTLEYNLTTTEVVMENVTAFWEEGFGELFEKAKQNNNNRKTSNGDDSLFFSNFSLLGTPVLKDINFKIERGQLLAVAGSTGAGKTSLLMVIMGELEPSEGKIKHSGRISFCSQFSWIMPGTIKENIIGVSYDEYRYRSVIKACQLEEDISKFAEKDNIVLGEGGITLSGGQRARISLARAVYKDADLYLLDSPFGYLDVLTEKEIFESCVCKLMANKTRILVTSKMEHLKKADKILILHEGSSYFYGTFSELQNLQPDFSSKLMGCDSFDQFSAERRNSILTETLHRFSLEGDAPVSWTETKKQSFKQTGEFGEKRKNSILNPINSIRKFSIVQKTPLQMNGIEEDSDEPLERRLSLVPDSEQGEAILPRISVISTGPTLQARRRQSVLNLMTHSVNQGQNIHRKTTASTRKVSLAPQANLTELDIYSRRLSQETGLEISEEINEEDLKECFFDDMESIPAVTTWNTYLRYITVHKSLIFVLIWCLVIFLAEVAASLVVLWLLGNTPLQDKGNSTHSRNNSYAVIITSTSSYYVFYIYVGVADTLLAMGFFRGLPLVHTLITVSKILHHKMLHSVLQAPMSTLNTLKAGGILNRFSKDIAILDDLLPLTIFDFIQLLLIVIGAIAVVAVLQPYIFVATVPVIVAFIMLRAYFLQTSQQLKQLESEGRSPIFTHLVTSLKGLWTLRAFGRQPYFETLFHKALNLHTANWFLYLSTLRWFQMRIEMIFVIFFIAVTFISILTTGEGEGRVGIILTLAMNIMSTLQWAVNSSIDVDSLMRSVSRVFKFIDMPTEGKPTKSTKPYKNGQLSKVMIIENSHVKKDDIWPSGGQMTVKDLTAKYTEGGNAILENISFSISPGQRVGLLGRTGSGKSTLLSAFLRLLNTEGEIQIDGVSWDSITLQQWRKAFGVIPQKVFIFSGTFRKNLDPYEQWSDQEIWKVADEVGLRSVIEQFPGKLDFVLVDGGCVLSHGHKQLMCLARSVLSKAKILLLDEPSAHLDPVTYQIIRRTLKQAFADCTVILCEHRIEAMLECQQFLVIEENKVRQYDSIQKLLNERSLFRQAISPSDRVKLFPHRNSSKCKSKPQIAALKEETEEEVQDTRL

| EC30 | Structure (SMILES) |
| --- | --- |
| +++ (“+++” means <3 uM) | CC(C)[C@@H](C)Nc1ccc(-c2ccc(C(=O)NS(=O)(=O)c3cccc(N)n3)c(N3[C@H](C)CC[C@@H]3C)n2)cn1 [Compound 1442, N-[(6-amino-2-pyridyl)sulfonyl]-6-[6-[[(1R)-1,2-dimethylpropyl]amino]-3-pyridyl]-2-[(2S,5R)-2,5-dimethylpyrrolidin-1-yl]pyridine-3-carboxamide] |
| ++ (“++” means between 3 uM and 10 uM) | C[C@@H]1CN(c2nc(-c3ccccc3)ccc2C(=O)NS(=O)(=O)N2CC[C@H](N)C2)C(C)(C)C1 [Compound 1725, N-[(3S)-3-aminopyrrolidin-1-yl]sulfonyl-6-phenyl-2-[(4S)-2,2,4-trimethylpyrrolidin-1-yl]pyridine-3-carboxamide] |
| +++ (“+++” means <3 uM) | CC(C)Oc1ccc(-c2ccc(C(=O)NS(=O)(=O)c3ccc[nH]c3=O)c(N3C[C@@H](C)CC3(C)C)n2)cc1 [Compound 1774, 6-(4-isopropoxyphenyl)-N-[(2-oxo-1H-pyridin-3-yl)sulfonyl]-2-[(4S)-2,2,4-trimethylpyrrolidin-1-yl]pyridine-3-carboxamide] |
| +++ (“+++” means <3 uM) | [2H]C([2H])([2H])C([2H])(COc1ccn(-c2ccc(C(=O)NS(=O)(=O)c3cccnc3N)c(N3C[C@@H](C)CC3(C)C)n2)n1)C([2H])([2H])[2H] [Compound 1887, N-[(2-amino-3-pyridyl)sulfonyl]-6-[3-[2,3,3,3-tetradeuterio-2-(trideuteriomethyl)propoxy]pyrazol-1-yl]-2-[(4S)-2,2,4-trimethylpyrrolidin-1-yl]pyridine-3-carboxamide] |
| +++ (“+++” means <3 uM) | C[C@@H]1CN(c2nc(-c3ccccc3)ccc2C(=O)NS(=O)(=O)c2cccnc2N)C(C)(C)C1 [Compound 1958, N-[(2-amino-3-pyridyl)sulfonyl]-6-phenyl-2-[(4S)-2,2,4-trimethylpyrrolidin-1-yl]pyridine-3-carboxamide] |
| +++ (“+++” means <3 uM) | CC1CN(c2ncccc2C(=O)NS(=O)(=O)c2cccc(Nc3ccc4c(c3)CCC4)n2)C(C)(C)C1 (stereo not drawn) [Compound 1909, N—[[6-(indan-5-ylamino)-2-pyridyl]sulfonyl]-2-(2,2,4-trimethylpyrrolidin-1-yl)pyridine-3-carboxamide] |
| +++ (“+++” means <3 uM) | Cc1cc(-c2ccc(C(=O)NS(=O)(=O)c3cccc(N)n3)c(N3C[C@@H](C)CC3(C)C)n2)cnc1OCCOC(C)C [Compound 1973, N-[(6-amino-2-pyridyl)sulfonyl]-6-[6-(2-isopropoxyethoxy)-5-methyl-3-pyridyl]-2-[(4S)-2,2,4-trimethylpyrrolidin-1-yl]pyridine-3-carboxamide] |
| ++ (“++” means between 3 uM and 10 uM) | COc1ccc(-c2cnc(N3CC(C)CC3(C)C)c(C(=O)NS(=O)(=O)c3cccc(N)n3)c2)cn1 (stereo not drawn) [Compound 1886, N-[(6-amino-2-pyridyl)sulfonyl]-5-(6-methoxy-3-pyridyl)-2-(2,2,4-trimethylpyrrolidin-1-yl)pyridine-3-carboxamide] |
| +++ (“+++” means <3 uM) | C[C@@H]1CN(c2nc(C3=COCCC3)ccc2C(=O)NS(=O)(=O)c2cccc(N)n2)C(C)(C)C1 [Compound 1524, N-[(6-amino-2-pyridyl)sulfonyl]-6-(3,4-dihydro-2H-pyran-5-yl)-2-[(4S)-2,2,4-trimethylpyrrolidin-1-yl]pyridine-3-carboxamide] |
| +++ (“+++” means <3 uM) | CCOC(=O)/C=C/c1cc(C(=O)NS(=O)(=O)c2cccc(N)n2)c(N2C[C@@H](C)CC2(C)C)nc1C(C)(C)C [Compound 1490, Ethyl (E)-3-[5-[(6-amino-2-pyridyl)sulfonylcarbamoyl]-2-tert-butyl-6-[(4S)-2,2,4-trimethylpyrrolidin-1-yl]-3-pyridyl]prop-2-enoate] |
| +++ (“+++” means <3 uM) | COc1nc(C)ccc1S(=O)(=O)NC(=O)c1ccc(C(C)(C)C)nc1Oc1c(C)cc(C)cc1C [Compound 1153, 6-tert-butyl-N-[(2-methoxy-6-methyl-3-pyridyl)sulfonyl]-2-(2,4,6-trimethylphenoxy)pyridine-3-carboxamide] |

More lines, now with the values behind:

| Structure (SMILES) | EC30 |
| --- | --- |
| CC(C)COc1cc(F)cc(-c2ccc(C(=O)NS(=O)(=O)c3cccc(N)n3)c(N3CC(C)OCC3(C)C)n2)c1 (stereo not drawn) [Compound 1548, N-[(6-amino-2-pyridyl)sulfonyl]-6-(3-fluoro-5-isobutoxy-phenyl)-2-(2,5,5-trimethylmorpholin-4-yl)pyridine-3-carboxamide] | +++ (“+++” means <3 uM) |
| COc1cccc(S(=O)(=O)NC(=O)c2ccc(-c3cc(F)cc(OCC(C)C)c3)nc2N2C[C@@H](C)CC2(C)C)n1 [Compound 1483, 6-(3-fluoro-5-isobutoxy-phenyl)-N-[(6-methoxy-2-pyridyl)sulfonyl]-2-[(4S)-2,2,4-trimethylpyrrolidin-1-yl]pyridine-3-carboxamide] | +++ (“+++” means <3 uM) |
| CC(C)COc1cc(F)cc(-c2ccc(C(=O)NS(=O)(=O)c3cccc(N)n3)c(N(C)C3CC3)n2)c1 [Compound 1117, N-[(6-amino-2-pyridyl)sulfonyl]-2-[cyclopropyl(methyl)amino]-6-(3-fluoro-5-isobutoxy-phenyl)pyridine-3-carboxamide] | +++ (“+++” means <3 uM) |
| CC(C)COc1cc(F)cc(-c2ccc(C(=O)NS(=O)(=O)c3ccn[nH]3)c(N3CCCC(C(F)(F)F)C3)n2)c1 (stereo not drawn) [Compound 907, 6-(3-fluoro-5-isobutoxy-phenyl)-N-(1H-pyrazol-5-ylsulfonyl)-2-[3-(trifluoromethyl)-1-piperidyl]pyridine-3-carboxamide] | +++ (“+++” means <3 uM) |
| CC(C)COc1cc(F)cc(-c2ccc(C(=O)NS(=O)(=O)c3cccc(=O)[nH]3)c(N3CC(C)CC3(C)C)n2)c1 (stereo not drawn) [Compound 1308, 6-(3-fluoro-5-isobutoxy-phenyl)-N-[(6-oxo-1H-pyridin-2-yl)sulfonyl]-2-(2,2,4-trimethylpyrrolidin-1-yl)pyridine-3-carboxamide] | +++ (“+++” means <3 uM) |
| Cc1cc(C)c(Oc2ncc(-c3ccccc3C)cc2C(=O)NS(=O)(=O)c2cccc(N)n2)c(C)c1 [Compound 817, N-[(6-amino-2-pyridyl)sulfonyl]-5-(o-tolyl)-2-(2,4,6-trimethylphenoxy)pyridine-3-carboxamide] | +++ (“+++” means <3 uM) |
| COc1cccc(F)c1-c1ccc(C(=O)NS(=O)(=O)c2cccc(N)n2)c(Oc2c(C)cc(C)cc2C)n1 [Compound 920, N-[(6-amino-2-pyridyl)sulfonyl]-6-(2-fluoro-6-methoxy-phenyl)-2-(2,4,6-trimethylphenoxy)pyridine-3-carboxamide] | +++ (“+++” means <3 uM) |
| CC(C)COc1cc(F)cc(-c2ccc(C(=O)NS(=O)(=O)c3cccc(N)n3)c(OCCC3CCCCC3)n2)c1 [Compound 1465, N-[(6-amino-2-pyridyl)sulfonyl]-2-(2-cyclohexylethoxy)-6-(3-fluoro-5-isobutoxy-phenyl)pyridine-3-carboxamide] | +++ (“+++” means <3 uM) |
| CC(C)COc1cc(F)cc(-c2ccc(C(=O)NS(=O)(=O)c3cccc(N)n3)c(N3CCOCC3(C)C)n2)c1 [Compound 1267, N-[(6-amino-2-pyridyl)sulfonyl]-2-(3,3-dimethylmorpholin-4-yl)-6-(3-fluoro-5-isobutoxy-phenyl)pyridine-3-carboxamide] | +++ (“+++” means <3 uM) |
| CC(C)COc1cc(F)cc(-c2ccc(C(=O)NS(=O)(=O)c3cccc(N)n3)c(OCC3CC3)n2)c1 [Compound 1229, N-[(6-amino-2-pyridyl)sulfonyl]-2-(cyclopropylmethoxy)-6-(3-fluoro-5-isobutoxy-phenyl)pyridine-3-carboxamide] | +++ (“+++” means <3 uM) |
| CC(C)COc1cc(F)cc(-c2ccc(C(=O)NS(=O)(=O)N3CCCC3)c(N3C[C@@H](C)CC3(C)C)n2)c1 [Compound 1619, 6-(3-fluoro-5-isobutoxy-phenyl)-N-pyrrolidin-1-ylsulfonyl-2-[(4S)-2,2,4-trimethylpyrrolidin-1-yl]pyridine-3-carboxamide] | +++ (“+++” means <3 uM) |
| CC(C)COc1cc(F)cc(-c2ccc(C(=O)NS(=O)(=O)c3cccc(N)n3)c(N3CC(C(F)(F)F)CC3(C)C)n2)c1 (stereo not drawn) [Compound 1788, N-[(6-amino-2-pyridyl)sulfonyl]-2-[2,2-dimethyl-4-(trifluoromethyl)pyrrolidin-1-yl]-6-(3-fluoro-5-isobutoxy-phenyl)pyridine-3-carboxamide] | +++ (“+++” means <3 uM) |
| CC(C)COc1cnn(-c2ccc(C(=O)NS(=O)(=O)c3cccnc3N)c(N3C[C@@H](C)CC3(C)C)n2)c1 [Compound 1895, N-[(2-amino-3-pyridyl)sulfonyl]-6-(4-isobutoxypyrazol-1-yl)-2-[(4S)-2,2,4-trimethylpyrrolidin-1-yl]pyridine-3-carboxamide] | +++ (“+++” means <3 uM) |
| CC(C)COc1cc(F)cc(-c2ccc(C(=O)NS(=O)(=O)c3cccc(N)n3)c(N3C[C@H]4CC[C@@H]3C4)n2)c1 [Compound 924, N-[(6-amino-2-pyridyl)sulfonyl]-2-[(1S,4R)-3-azabicyclo[2.2.1]heptan-3-yl]-6-(3-fluoro-5-isobutoxy-phenyl)pyridine-3-carboxamide] | +++ (“+++” means <3 uM) |
| CC(C)COc1cc(F)cc(-c2ccc(C(=O)NS(=O)(=O)c3cccc(N)n3)c(N3CCC4(CCC4)CC3)n2)c1 [Compound 1303, N-[(6-amino-2-pyridyl)sulfonyl]-2-(7-azaspiro[3.5]nonan-7-yl)-6-(3-fluoro-5-isobutoxy-phenyl)pyridine-3-carboxamide] | +++ (“+++” means <3 uM) |
| Cc1cc(C)c(Oc2nc(-c3cc(F)cc(F)c3)ccc2C(=O)NS(=O)(=O)c2ccc[nH]c2=O)c(C)c1 [Compound 815, 6-(3,5-difluorophenyl)-N-[(2-oxo-1H-pyridin-3-yl)sulfonyl]-2-(2,4,6-trimethylphenoxy)pyridine-3-carboxamide] | ++ (“++” means between 3 uM and 10 uM) |
